The values below come from ChEMBL document CHEMBL5620434, “Total Synthesis and Antibacterial Evaluation of Lupinifolin and Its Natural Analogues” (2024).

In brackets after ≈: the same amount, converted by molar mass. Activity calls are given as the source filed them.

For test [1], the system named is Escherichia coli. Kind of test: Antibacterial activity against Escherichia coli ATCC 25922 assessed as reduction in bacterial growth incubated for 24 hrs by CLSI protocol based assay. It is filed as functional.
In test [2] the test system is Staphylococcus aureus. In words: Antibacterial activity against Staphylococcus aureus ATCC29213 assessed as reduction in bacterial growth incubated for 24 hrs by CLSI protocol based assay. It is filed as functional.
For test [3], the system named is Enterococcus faecalis. Kind of test: Antibacterial activity against Enterococcus faecalis ATCC29212 assessed as reduction in bacterial growth incubated for 24 hrs by CLSI protocol based assay. It is filed as functional.
Test [4] concerns Streptococcus mutans. Kind of test: Bactericidal activity against Streptococcus mutans by CLSI protocol based assay. It is filed as functional.
The test system of test [5] is Staphylococcus aureus. In words: Antibacterial activity against methicillin-resistant Staphylococcus aureus 21-5 assessed as reduction in bacterial growth incubated for 24 hrs by CLSI protocol based assay. It is filed as functional.
The test system of test [6] is Streptococcus mutans. Kind of test: Antibacterial activity against Streptococcus mutans by CLSI protocol based assay. It is filed as functional.
Test [7] deals with Enterococcus faecalis. Kind of test: Antibacterial activity against vancomycin-resistant Enterococcus faecalis ATCC51299 assessed as reduction in bacterial growth incubated for 24 hrs by CLSI protocol based assay. It is filed as functional.
In test [8] the test system is Escherichia coli. In words: Antibacterial activity against Escherichia coli ATCC 25922. It is filed as functional.
For test [9], the system named is Enterococcus faecalis. Kind of test: Antibacterial activity against Enterococcus faecalis assessed as decrease in bacterial growth measured after 16 to 18 hrs in presence of phosphatidylglycerol. It is filed as functional, organism-based. The following applies: time 16-18 hrs.
Test [10] concerns Cell membrane. Kind of test: Disruption of membrane integrity in Enterococcus faecalis ATCC29212 assessed as increase in green fluorescence at 8 times MIC incubated for 2 hrs by NucGreen dye based fluorescence microscopic analysis. It is filed as cell membranes.
The test system of test [11] is Enterococcus faecalis. In words: Antibacterial activity against Enterococcus faecalis assessed as decrease in bacterial growth measured after 16 to 18 hrs in presence of cardiolipin. It is filed as functional, organism-based. The following applies: time 16-18 hrs.
In test [12] the test system is Cell membrane. Kind of test: Disruption of membrane integrity in Enterococcus faecalis ATCC29212 assessed as increase in red fluorescence at 8 times MIC incubated for 2 hrs by EthD-III dye based fluorescence microscopic analysis.
Test [13] deals with Enterococcus faecalis. Kind of test: Antibacterial activity against Enterococcus faecalis assessed as decrease in bacterial growth measured after 16 to 18 hrs in presence of phosphatidylethanolamine. It is filed as functional, organism-based. The following applies: time 16-18 hrs.
For test [14], the system named is Cell membrane. Kind of test: Disruption of membrane integrity in […] Enterococcus faecalis ATCC29212 assessed as appearance of ruptured cell surface at 2.0 ug/ml incubated for 2 hrs by SEM analysis. The following applies: dose 2.0 µg/ml. It is filed as cell membranes.
Test [15] deals with Cell membrane. Kind of test: Disruption of membrane integrity in […] Enterococcus faecalis ATCC29212 assessed as appearance of shrunken cell surface at 2.0 ug/ml incubated for 2 hrs by SEM analysis. It is filed as cell membranes. The following applies: dose 2.0 µg/ml.
In test [16] the test system is Escherichia coli. In words: Antibacterial activity against Escherichia coli ATCC 25922 in presence of polymyxin B nonapeptide. It is filed as functional.
The test system of test [17] is Enterococcus faecalis. Kind of test: Antibacterial activity against Enterococcus faecalis assessed as decrease in bacterial growth measured after 16 to 18 hrs in presence of peptidoglycan. It is filed as functional, organism-based. The conditions noted are these: time 16-18 hrs.
Test [18] concerns Cell membrane. Kind of test: Disruption of membrane integrity in […] Enterococcus faecalis ATCC29212 assessed as appearance of wrinkled cell surface at 2.0 ug/ml incubated for 2 hrs by SEM analysis. The conditions noted are these: dose 2.0 µg/ml. It is filed as cell membranes.

Consider `CC(C)=CCc1c2c(c(O)c3c1O[C@H](c1ccc(O)cc1)CC3=O)C=CC(C)(C)O2` [LUPINIFOLIN], for which the MIC (usually the smallest concentration in the dilution series that meets the test's criterion for growth inhibition) was above 128 µg/mL in the test with Escherichia coli [1]; 2 µg/mL (≈ 4.92 µM) in the test on Staphylococcus aureus [2]; 0.5 µg/mL (≈ 1.23 µM) with Enterococcus faecalis [3]; 2 µg/mL (≈ 4.92 µM) in the test on Staphylococcus aureus [5]; 0.25 µg/mL (≈ 0.615 µM) with Streptococcus mutans [6]; 1 µg/mL (≈ 2.46 µM) with Enterococcus faecalis [7]. The MBC (usually the lowest tested concentration that kills the bacteria rather than only halting them) with Streptococcus mutans [4] was 0.5 µg/mL (≈ 1.23 µM).

Take `CC(C)=CCc1c2c(c(O)c3c1O[C@H](c1ccccc1)CC3=O)C=CC(C)(C)O2`: the MIC in the test with Escherichia coli [1], in the test on Staphylococcus aureus [2], with Enterococcus faecalis [3], with Staphylococcus aureus [5] and in the test on Enterococcus faecalis [7] was above 128 µg/mL each time.

In the case of `COc1ccc([C@@H]2CC(=O)c3c(O)c4c(c(CC=C(C)C)c3O2)OC(C)(C)C=C4)c(O)c1` [KHONKLONGINOL H], the MIC in the test on Escherichia coli [1] was above 128 µg/mL; with Staphylococcus aureus [2], 2 µg/mL (≈ 4.58 µM); in the test with Enterococcus faecalis [3] it was 1 µg/mL (≈ 2.29 µM); with Staphylococcus aureus [5], 4 µg/mL (≈ 9.16 µM); in the test with Enterococcus faecalis [7], 4 µg/mL (≈ 9.16 µM).

In the test on Escherichia coli [8], `CC(C)C[C@@H]1NC(=O)[C@@H](Cc2ccccc2)NC(=O)[C@H](CCN)NC(=O)[C@@H](NC(=O)[C@H](CCN)NC(=O)[C@@H](N)[C@@H](C)O)CCNC(=O)C([C@@H](C)O)NC(=O)[C@H](CCN)NC(=O)[C@H](CCN)NC1=O` (stereo partly drawn) came in with an MIC above 128 µg/mL.

Take `CC(C)=CCc1c(O)c2c(c3c1OC(C)(C)C=C3)OC(c1ccc(O)cc1O)CC2=O` (stereo not drawn): the MIC in the test with Escherichia coli [1] is above 128 µg/mL; in the test on Staphylococcus aureus [2], 0.25 µg/mL (≈ 0.592 µM); in the test with Enterococcus faecalis [3] it was 0.25 µg/mL (≈ 0.592 µM); in the test with Staphylococcus aureus [5], 0.25 µg/mL (≈ 0.592 µM); in the test with Enterococcus faecalis [7], 0.5 µg/mL (≈ 1.18 µM); in the test on Escherichia coli [16] it was 2 µg/mL. The molecule also had an MIC against Escherichia coli [8] above 128 µg/mL. For the same molecule, the outcome in the test with Enterococcus faecalis [9], with Cell membrane [10], in the test on Enterococcus faecalis [11], in the test with Cell membrane [12], in the test with Cell membrane [14] and with Cell membrane [15] was Active. Further, the result with Cell membrane [18] was Active. Moreover, the outcome with Enterococcus faecalis [13] and with Enterococcus faecalis [17] was inactive.

Turning to `CC1(C)S[C@@H]2[C@H](NC(=O)[C@H](N)c3ccccc3)C(=O)N2[C@H]1C(=O)O` [AMPICILLIN], the MIC amounted to 8 µg/mL (≈ 22.9 µM) in the test with Escherichia coli [1], 0.5 µg/mL (≈ 1.43 µM) in the test on Staphylococcus aureus [2], 0.5 µg/mL (≈ 1.43 µM) in the test on Enterococcus faecalis [3] and 32 µg/mL (≈ 91.6 µM) with Staphylococcus aureus [5].

On to `CC(C)=CCc1c2c(c(O)c3c1O[C@H](c1ccccc1O)CC3=O)C=CC(C)(C)O2` [MINIMIFLORIN], for which the MIC is above 128 µg/mL in the test with Escherichia coli [1]; 2 µg/mL (≈ 4.92 µM) with Staphylococcus aureus [2]; 0.5 µg/mL (≈ 1.23 µM) with Enterococcus faecalis [3]; 2 µg/mL (≈ 4.92 µM) in the test with Staphylococcus aureus [5]; 1 µg/mL (≈ 2.46 µM) with Enterococcus faecalis [7].

Regarding `CC(C)=CCc1c2c(c(O)c3c1O[C@H](c1ccc(O)cc1O)CC3=O)C=CC(C)(C)O2` [FLEMICHIN D], the MIC in the test with Escherichia coli [1] is above 128 µg/mL; with Staphylococcus aureus [2], 0.5 µg/mL (≈ 1.18 µM); in the test on Enterococcus faecalis [3], 0.5 µg/mL (≈ 1.18 µM); in the test on Staphylococcus aureus [5] it was 0.5 µg/mL (≈ 1.18 µM); with Enterococcus faecalis [7] it was 0.5 µg/mL (≈ 1.18 µM).
